{"source": "ChEMBL document CHEMBL4814075", "about": "“Novel Thienopyrimidines as Acetyl-CoA Carboxylase Inhibitors for Treating Liver Diseases” (ACS Med Chem Lett, 2021)"}
{"target": "Acetyl-CoA carboxylase 1 (Homo sapiens, UniProt Q13085)", "assay": "Inhibition of ACC1 in human HepG2 cells assessed as lipid content using 13C-labelled acetate as substrate incubated for 1 hr followed by substrate addition and measured after 24 hrs by QTOF mass spectrometer", "type": "cell-based", "units": {"EC50": "nM"}}
{"smiles": "COc1ccccc1[C@H](Cn1c(=O)n(C(C)(C)C(=O)NS(=O)(=O)C2(C)CC2)c(=O)c2c(C)c(-n3nccn3)sc21)O[C@@H]1C[C@H]2CC[C@@H](C1)O2", "EC50": 1}
{"smiles": "Cc1c(-n2nccn2)sc2c1c(=O)n(C1(C(=O)NS(=O)(=O)C3(C)CC3)CC1)c(=O)n2C[C@H](O[C@@H]1C[C@H]2CC[C@@H](C1)O2)c1cc(F)ccc1OC(F)F", "EC50": 0.9}
{"smiles": "COc1ccccc1[C@H](Cn1c(=O)n(C2(C(=O)NS(=O)(=O)C3(C)CC3)CC2)c(=O)c2c(C)c(-n3nccn3)sc21)O[C@@H]1C[C@H]2CC[C@@H](C1)O2", "EC50": 1}
{"smiles": "COc1ccccc1[C@H](Cn1c(=O)n(C(C)(C)C(=O)NS(=O)(=O)C2(C)CC2)c(=O)c2c(C)c(-c3ncco3)sc21)O[C@@H]1C[C@H]2CC[C@@H](C1)O2", "EC50": 1}
{"smiles": "COc1ccc(F)cc1[C@H](Cn1c(=O)n(C(C)(C)C(=O)NS(=O)(=O)C2(C)CC2)c(=O)c2c(C)c(-n3nccn3)sc21)O[C@@H]1C[C@H]2CC[C@@H](C1)O2", "EC50": 0.3}
{"smiles": "COc1ccccc1[C@H](Cn1c(=O)n([C@H](C)C(=O)NS(=O)(=O)C2(C)CC2)c(=O)c2c(C)c(-c3ncco3)sc21)O[C@@H]1C[C@H]2CC[C@@H](C1)O2", "EC50": 1}
